Assay results: article PMC7881204, “A small-molecular inhibitor against Proteus mirabilis urease to treat catheter-associated urinary tract infections” (Scientific Reports, 2021)

Key:
urease [1] = target: T1, urease (Canavalia ensiformis, UniProt P07374); assay: colorimetric urease assay (phenol red), dose-response; type: biochemical
T1 construct: Type III powder, urease from C. ensiformis (Merck)

urease [2] = target: T1, urease; assay: colorimetric urease assay (phenol red), Dixon plot; IC50 […]; type: biochemical

T1 sequence (P07374 whole entry, looked up): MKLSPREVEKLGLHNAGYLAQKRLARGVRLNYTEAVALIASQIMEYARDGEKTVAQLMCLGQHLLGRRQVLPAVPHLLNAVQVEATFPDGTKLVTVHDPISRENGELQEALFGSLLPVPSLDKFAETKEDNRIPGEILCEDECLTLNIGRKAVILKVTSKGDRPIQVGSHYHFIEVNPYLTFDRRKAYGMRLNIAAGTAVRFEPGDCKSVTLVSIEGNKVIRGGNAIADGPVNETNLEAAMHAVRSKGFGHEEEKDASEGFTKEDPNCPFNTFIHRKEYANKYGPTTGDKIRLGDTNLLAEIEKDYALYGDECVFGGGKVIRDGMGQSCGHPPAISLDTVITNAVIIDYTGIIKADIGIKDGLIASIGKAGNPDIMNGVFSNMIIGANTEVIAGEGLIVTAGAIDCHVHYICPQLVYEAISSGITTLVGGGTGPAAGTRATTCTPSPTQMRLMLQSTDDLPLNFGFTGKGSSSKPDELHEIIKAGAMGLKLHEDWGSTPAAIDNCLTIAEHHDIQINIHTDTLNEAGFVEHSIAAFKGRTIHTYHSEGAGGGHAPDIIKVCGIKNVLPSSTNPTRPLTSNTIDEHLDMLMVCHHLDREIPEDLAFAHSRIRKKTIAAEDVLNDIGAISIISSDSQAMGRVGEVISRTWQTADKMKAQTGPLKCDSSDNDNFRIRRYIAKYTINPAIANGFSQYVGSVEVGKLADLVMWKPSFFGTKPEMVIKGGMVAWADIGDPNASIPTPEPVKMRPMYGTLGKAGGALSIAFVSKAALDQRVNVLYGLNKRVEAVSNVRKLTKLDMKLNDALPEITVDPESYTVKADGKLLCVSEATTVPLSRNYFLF

Structure (SMILES): CC(=O)NO [AHA, acetohydroxamic acid]
- IC50 (urease [1]): 4.8 mM

Structure (SMILES): NC(=O)CS [2-MA, 2-mercaptoacetamide]
- Ki (urease [2]): 2.95 mM
